Patent US8765696B2, “Steroid compound” (Mikasa Seiyaku Co., Ltd., priority 2009, dated 2014)

Experiments:
[1] = Amount of production of active metabolite in inflamed skin and non-inflamed skin; format: in vivo; details: hairless rat, 0.1 mL of 0.1% ointment, LC/MS/MS, Mean ± S.D.
Description: The compounds of the present invention have the advantageous feature that they show the pharmacological effect after being metabolized to an active metabolite (des-ciclesonide) at the site of inflammation. The amount of the active metabolite produced when the compound of the present invention was applied to inflamed skin (skin whose dermatitis was induced by DNCB) or non-inflamed skin (normal skin) was compared.
Using, as the test region, an area of 3 cm×4 cm on the abdomen of a hairless rat of 9 weeks old, 0.4 mL of 1% DNCB/acetone solution was applied to the inside of the region under isoflurane anesthesia, to carry out sensitization. Two weeks later, 1 mL of 1% DNCB/acetone solution was applied to the inside of the region to cause induction, and, 48 hours thereafter, 0.1 mL of a test drug (0.1% ointment) was uniformly applied to the test region. The skin was removed 48 hours after the beginning of the application of the test drug. On the other hand, the test drug was also applied to a normal animal which had not been subjected to the sensitization and the induction, and the skin was removed 48 hours later. […] After centrifugation (10,000 g, 4° C., 5 min.), the centrifugal supernatant was subjected to quantification of the amount of the active metabolite (des-ciclesonide) using LC/MS/MS. […]

[2] = tested on: croton oil-induced granuloma; test: Test for croton oil-induced granuloma (air pouch exudate and thymus weight); format: in vivo, rat; details: male Wistar rats, 7 days, vs control group
Description: Using the croton oil granuloma test, which is a test method with which the local anti-inflammatory action and the systemic side effect can be evaluated at the same time, the pharmacological effect and the systemic side effect of the compounds of the present invention were studied.
Five individuals/group of male Wistar rats having body weights of 180 to 225 g were used, and hair on the back of these rats was shaved with a clipper under ether anesthesia, followed by preparing an air pouch by subcutaneous injection of 20 mL of air at the back. On the next day, 1 mL of cottonseed oil containing 1% croton oil was administered to the pouch. Each test drug was suspended in the croton oil-containing cottonseed oil before administration. Seven days later, blood was collected from abdominal aorta under ether anesthesia, and exudate in the pouch was collected and its fluid amount was measured. Further, the thymus was removed, and its weight was measured. The weight of the exudate and the weight of the thymus are shown in Table 2 as the suppression rate and the atrophy rate (%) with respect to those of the control group.

[3] = tested on: croton oil-induced ear edema; test: Test for croton oil-induced ear edema; format: in vivo; details: rat right auricle; for Edema suppression rate of 6 hours after administration of inflammatory agent (%): 6 hours after croton oil; for Edema suppression rate of 24 hours after administration of inflammatory agent (%): 24 hours after croton oil
Protocol: Croton oil ear edema test, which is a representative model for dermatitis, was used to study the pharmacological effect of compounds of the present invention.
Five individuals/group of rats of 5 weeks old (body weight, 128 g to 169 g) were used. One day before the test, the thickness of the right ear was measured under ether anesthesia using a dial thickness gauge, to obtain the Pre value. On the day of the test, 20 mg each of the ointments to be tested, which had been prepared to have various concentrations in white vaseline, was applied to the right auricle (both sides) of each rat, and a collar was then placed around the neck of the rat to prevent contacting/scratching and removal of the drug. Two hours later, the ointment was wiped off under ether anesthesia using absorbent cotton, and 0.1 mL of 5% croton oil (croton oil:ether:pyridine:distilled water=1:14:4:1) solution was applied dropwise to the both sides of the auricle while drying the solution with a drier (air blow), to induce ear edema. Six and 24 hours after the induction of the edema, the thickness of the right auricle was measured under ether anesthesia, and the edema rate and the edema suppression rate were calculated according to the equations below, which suppression rate is shown in Table 1.

DNCB-induced dermatitis = test: Test for DNCB-induced dermatitis (skin thickness and thymus weight); format: in vivo; details: rat, 0.1 mL once per day, 6 times
Protocol: The DNCB-induced dermatitis test, which is a representative model for allergic dermatitis, was used to study the pharmacological effect of the compound of the present invention.
Abdominal hair of rats (body weight, 205 to 230 g) under isoflurane anesthesia was shaved with an electric clipper and a shaver, and a test region having a size of 3 cm×4 cm was prepared, followed by applying 0.4 mL of 1% DNCB/acetone solution to the inside of the region, to carry out sensitization. Two weeks later, 1 mL of 1% DNCB/acetone solution was applied to the inside of the region to cause induction, and 4 days thereafter, reinduction was carried out. Two days after the reinduction, the skin was removed from the test region, and 5 predetermined positions were punched out using a punch having a diameter of 12 mm, followed by measuring the skin thickness using a dial thickness gauge. Further, to investigate the influence of side effects, the thymus was removed to measure its weight. Application of the test drug was carried out 4 hours after the first dermatitis induction such that 0.1 mL of the ointment is uniformly applied over the test region. Thereafter, the test drug was applied once per day, a total of 6 times until the next day of the reinduction (the day before removal of the skin). The skin thickness and the weight of the thymus are shown in Table 3 as the suppression rate and the atrophy rate (%) relative to those of the control group.

[4] = drug concentration 0.01% ointment
[5] = drug concentration 0.10% ointment

SMILES	Drug concentration of active metabolite (Compound C), 48 hours after test drug were applied once ([1]; DNCB-induced dermatitis skin)	Drug concentration of active metabolite (Compound C), 48 hours after test drug were applied once ([1]; non-inflamed skin (normal skin))	Rate of exudates suppression (pharmacological effects) ([2]; dose 0.001 mg/rat into pouch)	Rate of thymus atrophy (systemic side effects) ([2]; dose 0.001 mg/rat into pouch)	Rate of exudates suppression (pharmacological effects) ([2]; dose 0.01 mg/rat into pouch)	Rate of thymus atrophy (systemic side effects) ([2]; dose 0.01 mg/rat into pouch)	Rate of exudates suppression (pharmacological effects) ([2]; dose 0.1 mg/rat into pouch)	Rate of thymus atrophy (systemic side effects) ([2]; dose 0.1 mg/rat into pouch)	Rate of exudates suppression (pharmacological effects) ([2]; dose 1 mg/rat into pouch)	Rate of thymus atrophy (systemic side effects) ([2]; dose 1 mg/rat into pouch)	Edema suppression rate of 6 hours after administration of inflammatory agent (%) ([3]; ointment concentration 0.001%)	Edema suppression rate of 24 hours after administration of inflammatory agent (%) ([3]; ointment concentration 0.001%)	Edema suppression rate of 6 hours after administration of inflammatory agent (%) ([3]; ointment concentration 0.01%)	Edema suppression rate of 24 hours after administration of inflammatory agent (%) ([3]; ointment concentration 0.01%)	Edema suppression rate of 6 hours after administration of inflammatory agent (%) ([3]; ointment concentration 0.1%)	Edema suppression rate of 24 hours after administration of inflammatory agent (%) ([3]; ointment concentration 0.1%)	Rate of Skin thickness suppression (pharmacological effects) (%) (DNCB-induced dermatitis; [4])	Rate of thymus atrophy (systemic side effects) (%) (DNCB-induced dermatitis; [4])	Rate of Skin thickness suppression (pharmacological effects) (%) (DNCB-induced dermatitis; [5])	Rate of thymus atrophy (systemic side effects) (%) (DNCB-induced dermatitis; [5])
CC(=O)OCC1OC(OCC(=O)C23OC(C4CCCCC4)OC2CC2C4CCC5=CC(=O)C=CC5(C)C4C(O)CC23C)C(OC(C)=O)C(OC(C)=O)C1OC(C)=O (stereo not shown) [Compound 3]	1272 ± 276 (ng/g)	119 ± 48 (ng/g)	7.9%	0.0%	41.6%	0.0%	92.7%	0.0%	96.3%	2.4%	50.3%	48.1%	46.1%	58.0%	51.7%	56.0%	46.1%	0.0%	60.5%	0.0%
CC(=O)OC1C(C)OC(OCC(=O)C23OC(C4CCCCC4)OC2CC2C4CCC5=CC(=O)C=CC5(C)C4C(O)CC23C)C(OC(C)=O)C1OC(C)=O (stereo not shown) [Compound 9]	–	–	10.4%	12.2%	7.3%	10.8%	26.1%	9.4%	58.2%	15.5%	24.6%	17.8%	36.7%	8.6%	23.0%	21.6%	–	–	–	–
CC(=O)OC1C(C)OC(OCC(=O)C23OC(C4CCCCC4)OC2CC2C4CCC5=CC(=O)C=CC5(C)C4C(O)CC23C)C(OC(C)=O)C1OC(C)=O (stereo not shown) [Compound 10]	–	–	4.6%	0.0%	0.0%	0.0%	4.8%	0.0%	5.3%	0.0%	42.4%	45.8%	55.9%	33.2%	38.9%	39.9%	–	–	–	–
CC(=O)NC1C(OCC(=O)C23OC(C4CCCCC4)OC2CC2C4CCC5=CC(=O)C=CC5(C)C4C(O)CC23C)OC(COC(C)=O)C(OC(C)=O)C1OC(C)=O (stereo not shown) [Compound 11]	–	–	13.1%	3.9%	21.2%	7.9%	66.0%	10.8%	93.4%	16.0%	24.5%	39.4%	19.0%	26.5%	33.6%	48.0%	–	–	–	–
CC(=O)NC1C(OCC(=O)C23OC(C4CCCCC4)OC2CC2C4CCC5=CC(=O)C=CC5(C)C4C(O)CC23C)OC(COC(C)=O)C(OC(C)=O)C1OC(C)=O (stereo not shown) [Compound 12]	–	–	3.6%	0.0%	0.0%	5.8%	0.0%	17.7%	76.5%	8.0%	29.9%	36.6%	16.7%	29.6%	12.4%	9.1%	–	–	–	–
